Experimental data: patent US9233981B1, “Substituted phenyl hexahydropyrano[3,4-d][1,3]thiazin-2-amine compounds” (Pfizer Inc., priority 2013, dated 2016)

How the values were obtained:
[1] = system: sAPPβ levels in H4 human neuroglioma cells over-expressing the wild-type human APP695; test: Whole Cell Assay (In Vitro sAPPβ Assay), TMB-ELISA; type: cell-based; conditions: 18 hours, geometric mean of 2-3 determinations, Examples 32-34 (footnote b) single determination
Protocol: Whole Cell Assay (In Vitro sAPPpβ Assay):
H4 human neuroglioma cells over-expressing the wild-type human APP695 are treated for 18 hours with compound in a final concentration 1% DMSO. sAPPβ levels are measured using TMB-ELISA with capture APP N-terminal antibody (Affinity BioReagents, OMA1-03132), wild-type sAPPβ specific reporter p192 (Elan), and tertiary anti rabbit-HRP (GE Healthcare).

BACE1 enzyme = BACE1 enzyme (Homo sapiens (Human), UniProt P56817); test: BACE1 Cell-Free Assay (fluorescence polarization, cleavage of synthetic APP substrate); type: biochemical; conditions: geometric mean of 2-3 determinations; Examples 32-34 (footnote b) single determination
Sequence of BACE1 enzyme (P56817 46-457): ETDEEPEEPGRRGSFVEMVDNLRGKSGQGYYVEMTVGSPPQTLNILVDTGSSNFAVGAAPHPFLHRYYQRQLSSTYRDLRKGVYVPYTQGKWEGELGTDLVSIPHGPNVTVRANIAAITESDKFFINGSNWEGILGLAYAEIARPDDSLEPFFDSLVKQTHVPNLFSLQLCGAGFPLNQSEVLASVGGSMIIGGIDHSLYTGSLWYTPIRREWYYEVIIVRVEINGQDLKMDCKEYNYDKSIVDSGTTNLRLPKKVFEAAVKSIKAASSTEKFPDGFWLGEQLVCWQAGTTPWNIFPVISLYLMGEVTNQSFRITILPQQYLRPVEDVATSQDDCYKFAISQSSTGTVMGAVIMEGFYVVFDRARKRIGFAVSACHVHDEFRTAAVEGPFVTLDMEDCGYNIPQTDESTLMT
Source text: Beta-secretase (BACE) is one of the enzymes involved in the generation of the amyloid beta peptide found in the amyloid plaques of Alzheimer's Disease patients. This assay measures the inhibition of the beta-secretase enzyme as it cleaves a non-native peptide.
A synthetic APP substrate that can be cleaved by beta-secretase having N-terminal biotin and made fluorescent by the covalent attachment of Oregon Green at the Cys residue is used to assay beta-secretase activity in the presence or absence of the inhibitory compounds. The substrate is Biotin-GLTNIKTEEISEISY^EVEFR-C[Oregon Green]KK-OH. The BACE1 enzyme is affinity purified material from conditioned media of CHO-K1 cells that have been transfected with a soluble BACE construct (BACE1deltaTM96His). Compounds are incubated in a log dose response curve from a top concentration of 100 μM with BACE1 enzyme and the biotinylated fluorescent peptide in 384-well black plates (Thermo Scientific #4318). BACE1 is at a final concentration of 0.1 nM with a final concentration of peptide substrate of 150 nM in a reaction volume of 30 μL assay buffer [100 mM sodium acetate, pH 4.5 (brought to pH with acetic acid), and 0.001% Tween-20]. Plates are covered and incubated for 3 hours at 37° C. The reaction is stopped with the addition of 30 μL of 1.5 μM Streptavidin (Pierce, #21125). After a 10 minute incubation at room temperature, plates are read on a PerkinElmer EnVision for fluorescence polarization (Ex485 nm/Em530 nm). The activity of the beta-secretase enzyme is detected by changes in the fluorescence polarization that occur when the substrate is cleaved by the enzyme.

SMILES | IC50 [1] [pM] | IC50 (BACE1 enzyme) [nM]
Cc1ccc(F)c([C@H]2C[C@H]3CSC(N)=N[C@@]3(c3ccc(F)cc3F)CO2)c1 [Example 11, (4aR,6R,8aS)-8a-(2,4-difluorophenyl)-6-(2-fluoro-5-methylphenyl)-4,4a,5,6,8,8a-hexahydropyrano[3,4-d][1,3]thiazin-2-amine] | 17 | 21
C[C@H]1SC(N)=N[C@@]2(c3ccc(F)cc3F)CO[C@@H](c3cccc(C#N)c3)C[C@@H]12 [Example 34, (4R,4aR,6R,8aS)-8a-(2,4-Difluorophenyl)-6-(3-cyanophenyl)-4-methyl-4,4a,5,6,8,8a-hexahydropyrano[3,4-d][1,3]thiazin-2-amine] | 4 | 14
C[C@H]1SC(N)=N[C@@]2(c3ccc(F)cc3F)CO[C@@H](c3ccc(C#N)cc3)C[C@@H]12 [Example 33, (4R,4aR,6R,8aS)-8a-(2,4-Difluorophenyl)-6-(4-cyanophenyl)-4-methyl-4,4a,5,6,8,8a-hexahydropyrano[3,4-d][1,3]thiazin-2-amine] | 6 | 11
NC1=N[C@@]2(c3ccc(F)cc3F)CO[C@@H](c3ccc(F)c(F)c3)C[C@H]2CS1 [Example 5, (4aR,6R,8aS)-8a-(2,4-difluorophenyl)-6-(3,4-difluorophenyl)-4,4a,5,6,8,8a-hexahydropyrano[3,4-d][1,3]thiazin-2-amine] | 7 | 10
COc1ccccc1[C@H]1C[C@H]2CSC(N)=N[C@@]2(c2ccc(F)cc2F)CO1 [Example 17, (4aR,6R,8aS)-8a-(2,4-difluorophenyl)-6-(2-methoxyphenyl)-4,4a,5,6,8,8a-hexahydropyrano[3,4-d][1,3]thiazin-2-amine] | 691 | 2210
NC1=N[C@@]2(c3ccc(F)cc3F)CO[C@@H](c3cccc(F)c3)C[C@H]2CS1 [Example 2, (4aR,6R,8aS)-8a-(2,4-difluorophenyl)-6-(3-fluorophenyl)-4,4a,5,6,8,8a-hexahydropyrano[3,4-d][1,3]thiazin-2-amine] | 9 | 22
